Experiments:
[1] = system: formation of peroxidized arachidonic acid products; assay: inhibition of Fe/ascorbate-induced formation of peroxidized arachidonic acid products in the cell-free system; format: biochemical
Source text: (d) the formation of peroxidized arachidonic acid products in the cell-free system with an IC50 of approx. 1 μmol/l.

[2] = system: experimental stomach ulcers; conditions: rats; cited from earlier work
[3] = system: histamine-induced stomach ulcers; conditions: guinea pigs; Bhatia et al. 1964; cited from earlier work
[4] = system: stomach mucosa; conditions: oral, daily doses of 100 mg/kg over 6 days; Prasad et al. 1976; cited from earlier work

## COc1cc(/C=C/C(=O)CC(=O)/C=C/c2ccc(O)c(OC)c2)ccc1O [curcumin]
[1]
  concentration in which the antioxidative effect is already achieved: 1 μm
[2]
  effect on experimental stomach ulcers: does not cure
[3]
  protective effect against histamine-induced stomach ulcers: did not find any protective effect
[4]
  effect of high doses on the stomach mucosa: damaged the stomach mucosa

Source: patent publication US5401777A, “Use of preparations of curcuma plants” (priority 1992, dated 1995)
